Like-named read-outs stand apart in the source and are kept apart here.
What was measured:
[1] = target: T1, His-DNMT1 (182 kDa, human) (Homo sapiens, UniProt P26358); assay: DNMT1 assay ([methyl-3H] SAM Flashplate); type: biochemical; settings: for inhibition at 32 µM: compound at 32 μM, read-out: DNMT1 (% of inhibition) 32 μM; for inhibition at 100 µM: read-out: DNMT1 (% of inhibition) 100 μM
T1 construct: His; made in house
Procedure: His-DNMT1 (182 kDa, human) was cloned, expressed and purified as described in Halby et al. (ChemBioChem 2012, 13, 157-65). The reaction was performed in a 10 μL total reaction volume in low volume NBS™ 384-well microplates (Corning), containing the tested compound (up to 1% DMSO), 1 μM of a SAM/[methyl-^3H] SAM (3 TBq/mmol, PerkinElmer) mix in a ratio of 3-to-1 (isotopic dilution 1*:3), 0.3 μM of biotinylated hemimethylated DNA duplex (5′-GATmCGCmCGATGmCGmCGAATmCGmCGAT mCGATGmCGAT-3′ and BIOT-5′-[…] ATC-3′), and 90 nM of DNMT1 in methylation buffer (20 mM HEPES pH 7.2, 1 mM EDTA, 50 mM KCl, 25 μg/mL BSA). The reaction was incubated at 37° C. for 2 hours. 8 μL are then transferred into a streptavidin 96-well scintillant coated Flashplate™ (PerkinElmer) containing 190 μL of 20 μM SAH in 50 mM Tris-HCl pH 7.4. The Flashplate™ was agitated at room temperature for 1 hour, washed three times with 200 μL of 0.05% Tween®-20 in 50 mM Tris-HCl pH 7.4, and read in 200 μL of 50 mM Tris-HCl pH 7.4 on TopCount NXT (PerkinElmer).

[2] = target: T2, human C-terminal DNMT3A (a.a. 623-908) (Homo sapiens, UniProt Q9Y6K1); assay: DNMT3A assay (restriction-based fluorescence); type: biochemical; settings: for inhibition at 10 µM: read-out: DNMT3A (% of inhibition) 10 μM; for inhibition at 32 µM: read-out: DNMT3A (% of inhibition) 32 μM; for EC50: concentration range in triplicates; for inhibition at 20 µM: compound at 20 μM
T2 construct: The human C-terminal DNMT3A (a.a. 623-908); made in house
Excerpt: DNMT3A enzyme inhibition was adapted from the restriction-based fluorescence assay protocol described in Ceccaldi et al. (ChemBioChem 2011, 12, 1337-45). Briefly, a 5′-labelled biotin oligonucleotide is hybridized to its complementary strand labelled with 6-carboxyfluorescein at the 3′-end into a 384 well microplate (black Optiplates; Perkin Elmer) pre-coated with avidin. The duplex contains a unique CpG site overlapping with a restriction site of a methylation sensitive restriction enzyme. The human C-terminal DNMT3A (a.a. 623-908), produced as described in Gros et al. (Nucleic Acids Research 2013 Aug. 25), was added in each well (200 ng/well) and mixed with the chemical compounds at desired concentrations and freshly prepared AdoMet (20 μM final concentration) to start the reaction in a total volume of 50 μL. After 1 hour incubation at 37° C. each well were washed three times with PBS, Tween-20 0.05%, NaCl (500 mM) and three more times with PBST. Specific fluorescent signals were detected with the methylation-sensitive restriction enzyme HpyCH4IV (NEB) as described and measured on a Perkin Elmer Envision detector. The percentage of inhibition is reported. The formula used to calculate the percentage of inhibition is [(X−Y)/X]×100, where X is the signal determined in the absence of the inhibitor and Y is the signal obtained in the presence of the inhibitor. The concentration at which 50% of efficacy of inhibition is observed (EC50) was determined by analysis of a concentration range of the tested compound in triplicates. The non-linear regression fittings with sigmoidal dose-response (variable slope) were performed with GraphPad Prism 4.03 (GraphPad Software).

T2 sequence (Q9Y6K1 627-912 limits assumed): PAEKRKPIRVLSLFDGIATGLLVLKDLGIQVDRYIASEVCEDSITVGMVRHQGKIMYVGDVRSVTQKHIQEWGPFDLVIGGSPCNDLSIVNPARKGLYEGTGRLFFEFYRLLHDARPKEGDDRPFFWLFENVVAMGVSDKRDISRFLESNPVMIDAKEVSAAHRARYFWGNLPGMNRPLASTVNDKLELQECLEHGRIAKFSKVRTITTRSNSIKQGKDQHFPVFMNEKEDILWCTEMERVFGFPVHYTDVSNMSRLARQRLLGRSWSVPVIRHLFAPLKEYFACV
T1 sequence (P26358 whole entry): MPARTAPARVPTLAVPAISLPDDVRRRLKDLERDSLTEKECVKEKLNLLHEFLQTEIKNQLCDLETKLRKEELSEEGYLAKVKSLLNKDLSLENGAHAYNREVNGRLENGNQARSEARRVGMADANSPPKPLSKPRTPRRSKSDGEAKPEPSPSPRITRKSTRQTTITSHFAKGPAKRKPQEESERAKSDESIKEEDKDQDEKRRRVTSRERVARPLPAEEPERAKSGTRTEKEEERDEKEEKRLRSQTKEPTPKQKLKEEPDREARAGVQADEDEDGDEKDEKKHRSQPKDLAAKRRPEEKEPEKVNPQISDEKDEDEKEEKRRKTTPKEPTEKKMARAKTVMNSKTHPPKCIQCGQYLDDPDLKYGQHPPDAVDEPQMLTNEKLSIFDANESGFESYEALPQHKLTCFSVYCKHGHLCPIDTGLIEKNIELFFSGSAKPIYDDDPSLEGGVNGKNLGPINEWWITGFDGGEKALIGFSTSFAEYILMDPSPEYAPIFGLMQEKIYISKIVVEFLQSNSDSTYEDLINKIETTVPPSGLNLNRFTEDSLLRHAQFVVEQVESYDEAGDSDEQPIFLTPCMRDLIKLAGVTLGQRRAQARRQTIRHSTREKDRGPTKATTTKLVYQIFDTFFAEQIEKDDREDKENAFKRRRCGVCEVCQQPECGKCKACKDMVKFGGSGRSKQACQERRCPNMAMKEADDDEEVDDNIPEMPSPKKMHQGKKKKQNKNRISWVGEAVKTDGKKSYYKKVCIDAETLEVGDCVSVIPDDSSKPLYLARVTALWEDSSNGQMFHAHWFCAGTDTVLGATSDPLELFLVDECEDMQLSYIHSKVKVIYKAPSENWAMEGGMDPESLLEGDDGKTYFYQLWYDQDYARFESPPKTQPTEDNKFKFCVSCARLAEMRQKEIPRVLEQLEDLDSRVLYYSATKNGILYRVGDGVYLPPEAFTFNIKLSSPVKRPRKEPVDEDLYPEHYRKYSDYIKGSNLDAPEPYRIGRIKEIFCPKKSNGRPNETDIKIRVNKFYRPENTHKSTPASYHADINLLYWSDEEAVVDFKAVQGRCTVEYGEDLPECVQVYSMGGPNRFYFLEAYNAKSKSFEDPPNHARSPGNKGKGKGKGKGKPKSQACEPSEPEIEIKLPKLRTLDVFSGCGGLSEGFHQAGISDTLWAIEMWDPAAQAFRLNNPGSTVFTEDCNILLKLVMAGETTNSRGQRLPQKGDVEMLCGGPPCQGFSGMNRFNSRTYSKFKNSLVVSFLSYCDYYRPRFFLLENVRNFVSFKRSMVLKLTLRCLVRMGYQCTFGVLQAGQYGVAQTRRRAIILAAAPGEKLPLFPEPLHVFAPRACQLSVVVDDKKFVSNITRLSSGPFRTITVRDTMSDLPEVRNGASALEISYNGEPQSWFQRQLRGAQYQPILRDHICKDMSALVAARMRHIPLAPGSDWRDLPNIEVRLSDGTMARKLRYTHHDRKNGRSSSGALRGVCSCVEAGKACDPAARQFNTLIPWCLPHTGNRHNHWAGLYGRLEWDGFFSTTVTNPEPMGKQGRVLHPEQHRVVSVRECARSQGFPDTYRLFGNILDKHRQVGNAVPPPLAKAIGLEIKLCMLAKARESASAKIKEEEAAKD

SMILES	inhibition at 32 µM [1]	inhibition at 100 µM ([1]; compound at 100 μM)	inhibition at 10 µM ([2]; compound at 10 μM)	inhibition at 32 µM ([2]; compound at 32 μM)	EC50 [2]	inhibition at 20 µM [2]	inhibition at 100 µM [1]	inhibition at 10 µM [2]	inhibition at 32 µM [2]
Clc1ccc(CCNc2ncnc3cc(OCC4CCN(CCNc5ccnc6ccccc56)CC4)ccc23)cc1 [AC, 4-(2-(4-chlorophenyl)ethylamino)-7-((1-(2-(quinolin-4-ylamino)ethyl)piperidin-4-yl)methoxy)quinazoline]	75%	97%	88%	100%	1900 nM				
COCn1ccc(NCCN2CCC(COc3ccc4c(NCCCc5ccccc5)ncnc4c3)CC2)nc1=O [Compound K, 1-(methoxymethyl)-N^4-(2-(4-(((4-((3-phenylpropyl)amino)quinazolin-7-yl)oxy)methyl)piperidin-1-yl)ethyl)cytosine]			10%	44%		40%			
Clc1ccc2c(NCCN3CCC(COc4ccc5c(NCCCc6ccccc6)ncnc5c4)CC3)ccnc2c1 [AO, 4-((3-phenylpropyl)amino)-7-((1-(2-(7-chloroquinolin-4-ylamino)ethyl)piperidin-4-yl)methoxy)quinazoline]							79%	70%	62%
Nc1ncnc2cc(OCC3CCN(CCNc4ccnc5ccccc45)CC3)ccc12 [Compound I, 4-amino-7-((1-(2-(quinolin-4-ylamino)ethyl)piperidin-4-yl)methoxy)quinazoline]		99.3%	16%	68%		32%			
O=c1c2ccc(OCC3CCN(CCNc4ccnc5ccccc45)CC3)cc2ncn1CCCc1ccccc1 [Compound R, 3-(3-phenylpropyl)-7-((1-(2-(quinolin-4-ylamino)ethyl)piperidin-4-yl)methoxy)quinazolinone]	45%	98.4%	65%	99%					
O=CN(CCCNc1ccnc2ccccc12)CCCOc1ccc2c(NCCCc3ccccc3)ncnc2c1 [Compound E, N-(3-((4-((3-phenylpropyl)amino)quinazolin-7-yl)oxy)propyl)-N-(3-(quinolin-4-ylamino)propyl)formamide]				51%		27%			
O=[N+]([O-])c1ccc(CCNc2ncnc3cc(OCC4CCN(CCNc5ccnc6ccccc56)CC4)ccc23)cc1 [AE, 4-(2-(4-nitrophenyl)ethylamino)-7-((1-(2-(quinolin-4-ylamino)ethyl)piperidin-4-yl)methoxy)quinazoline]	54%	74%	61%	72%	1100 nM				
Cc1cc(NCCNc2ncnc3cc(OCC4CCN(CCNc5ccnc6ccccc56)CC4)ccc23)nc(N)n1 [Compound Q, 6-methyl-N^4-(2-((7-((1-(2-(quinolin-4-ylamino)ethyl)piperidin-4-yl)methoxy)quinazolin-4-yl)amino)ethyl)pyrimidine-2,4-diamine]	74%	99.6%	61%	68%	5700 nM				
CCCNc1ncnc2cc(OCC3CCN(CCNc4ccnc5ccccc45)CC3)ccc12 [Compound H, 4-propylamino-7-((1-(2-(quinolin-4-ylamino)ethyl)piperidin-4-yl)methoxy)quinazoline]		94.9%	28%	69%		44%			
c1ccc(CCCNc2ncnc3cc(OCCNc4ccnc5ccccc45)ccc23)cc1 [Compound S, 4-(3-phenylpropylamino)-7-(2-(quinolin-4-ylamino)ethoxy)quinazoline]		90%	52%	95%					
Nc1ccc(NCCN2CCC(COc3ccc4c(NCCCc5ccccc5)ncnc4c3)CC2)cc1 [Compound AN]				65%					
CC(C)c1ccc(CCNc2ncnc3cc(OCC4CCN(CCNc5ccnc6ccccc56)CC4)ccc23)cc1 [AF, 4-(2-(4-isopropylphenyl)ethylamino)-7-((1-(2-(quinolin-4-ylamino)ethyl)piperidin-4-yl)methoxy)quinazoline]			53%	83%					
Nc1ccc(CCNc2ncnc3cc(OCC4CCN(CCNc5ccnc6ccccc56)CC4)ccc23)cc1 [AH, 4-(2-(4-aminophenyl)ethylamino)-7-((1-(2-(quinolin-4-ylamino)ethyl)piperidin-4-yl)methoxy)quinazoline]	59%	97%	68%	96%					
c1ccc(CCCNc2ncnc3cc(OCC4CCN(CCNc5ccnc6ccccc56)C4)ccc23)cc1 (centres unmarked) [Compound AM, 4-((3-phenylpropyl)amino)-7-((1-(2-(quinolin-4-ylamino)ethyl)pyrrolidin-3-yl)methoxy)quinazoline]		100%		81%					
c1ccc(CCNc2ncnc3cc(OCC4CCN(CCNc5ccnc6ccccc56)CC4)ccc23)cc1 [Compound O, 4-(3-phenethylamino)-7-((1-(2-(quinolin-4-ylamino)ethyl)piperidin-4-yl)methoxy)quinazoline]	38%	98.4%	80%	99%					
NS(=O)(=O)c1ccc(CCNc2ncnc3cc(OCC4CCN(CCNc5ccnc6ccccc56)CC4)ccc23)cc1 [AD, 4-(2-(4-sulfonamidophenyl)ethylamino)-7-((1-(2-(quinolin-4-ylamino)ethyl)piperidin-4-yl)methoxy)quinazoline]	59%	100%		93%					
c1ccc(NCCNc2ncnc3cc(OCC4CCN(CCNc5ccnc6ccccc56)CC4)ccc23)cc1 [AK, 4-(2-(phenylamino)ethylamino)-7-((1-(2-(quinolin-4-ylamino)ethyl)piperidin-4-yl)methoxy)quinazoline]	93%	93%	76%	5%					
Clc1cccc(CCNc2ncnc3cc(OCC4CCN(CCNc5ccnc6ccccc56)CC4)ccc23)c1 [AA, 4-(2-(3-chlorophenyl)ethylamino)-7-((1-(2-(quinolin-4-ylamino)ethyl)piperidin-4-yl)methoxy)quinazoline]		97%	82%	91%	2700 nM				
c1ccc2c(NCCNc3ncnc4cc(OCC5CCN(CCNc6ccnc7ccccc67)CC5)ccc34)ccnc2c1 [AI]	99%	99%	86%	99%	1000 nM				
c1ccc(CCCNc2ncnc3cc(OCCCNCCNc4ccnc5ccccc45)ccc23)cc1 [Compound F, 7-(3-((2-(quinolin-4-ylamino)ethyl)amino)propyloxy)-4-((3-phenylpropyl)amino)quinazoline]		90%	59%	87%	10000 nM	76%			
c1ccc(CCCNc2ncnc3cc(OCC4CCN(CCNc5ccc6ncccc6c5)CC4)ccc23)cc1 [AS, 4-((3-phenylpropyl)amino)-7-((1-(2-(quinolin-6-ylamino)ethyl)piperidin-4-yl)methoxy)quinazoline]								60%	60%
CN(CCN1CCC(COc2ccc3c(NCCCc4ccccc4)ncnc3c2)CC1)c1ccnc2ccccc12 [AR, 4-((3-phenylpropyl)amino)-7-((1-(2-(methyl(quinolin-4-yl)amino)ethyl)piperidin-4-yl)methoxy)quinazoline]					4700 nM			66%	66%
